From PubChem BioAssay AID256 (DTP/NCI, 2004)
Values joined by “and” are separate entries in the source; they are usually repeats but may differ in a detail not shown here. Equal entries are not always repeated. Toxic doses and inconclusive results are not listed. How the source made its calls: active means survival T/C of 150% or more; inactive means T/C below 125% in these data. Positions of bridges follow the written chain, without caps; N, C: chain ends. Non-standard residues stand in square brackets, D forms with d. Residues, ends and D or L forms follow the SMILES beside them. Chains are numbered I, II in the order given. *: point of attachment. Quinoxaline2carbonyl = O=C(c1cnc2ccccc2n1)*; NMeV = CN[CH](C(=O)O)C(C)C; NMeC = CN[CH](CS)C(=O)O

Test system: CD2F1 mice, L1210 leukemia ip, survival T/C
Test: NCI In Vivo Anticancer Drug Screen. Data for tumor model L1210 Leukemia (intraperitoneal) in CD2F1 (CDF1) mice
Settings: endpoint: mean survival time, higher = longer survival
In short: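 Each value reflects a quotient of treated over vehicle control outcomes in mice with a transplanted tumor.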

[1] = dose: 50.0 mg/kg/injection, schedule: Q01DX009 (ip), vehicle: saline with Tween-80
[2] = dose: 100.0 mg/kg/injection, schedule: Q01DX009 (ip), vehicle: saline with Tween-80
[3] = dose: 200.0 mg/kg/injection, schedule: Q01DX009 (ip), vehicle: saline with Tween-80
[4] = dose: 12.5 mg/kg/injection, schedule: Q01DX009 (ip), vehicle: saline with Tween-80
[5] = dose: 25.0 mg/kg/injection, schedule: Q01DX009 (ip), vehicle: saline with Tween-80
[6] = dose: 100.0 mg/kg/injection, schedule: Q04DX003 (ip), vehicle: saline
[7] = dose: 200.0 mg/kg/injection, schedule: Q04DX003 (ip), vehicle: saline
[8] = dose: 400.0 mg/kg/injection, schedule: Q04DX003 (ip), vehicle: saline
[9] = dose: 100.0 mg/kg/injection, schedule: Q01DX001 (ip), vehicle: saline with Tween-80
[10] = dose: 200.0 mg/kg/injection, schedule: Q01DX001 (ip), vehicle: saline with Tween-80
[11] = dose: 400.0 mg/kg/injection, schedule: Q01DX001 (ip), vehicle: saline with Tween-80
[12] = dose: 400.0 mg/kg/injection, schedule: Q01DX009 (ip), vehicle: saline with Tween-80
[13] = dose: 100.0 mg/kg/injection, schedule: Q04DX002 (ip), vehicle: saline with Tween-80
[14] = dose: 200.0 mg/kg/injection, schedule: Q04DX002 (ip), vehicle: saline with Tween-80
[15] = dose: 100.0 mg/kg/injection, schedule: Q04DX003 (ip), vehicle: saline with Tween-80
[16] = dose: 200.0 mg/kg/injection, schedule: Q04DX003 (ip), vehicle: saline with Tween-80

Measured: T/C

COC1C(C)OC(OC2CC(C)(O)Cc3cc4c(c(O)c32)C(=O)c2c(O)cc3c(c2C4=O)OC2OC3(C)C(O)C(N(C)C)C2O)C(OC)C1(C)OC (stereo unspecified)
inactive: dose: 0.6 mg/kg/injection, schedule: Q01DX009 (ip), vehicle: other 115 % of control | dose: 1.25 mg/kg/injection, schedule: Q04DX003 (ip), vehicle: other 101 % of control | dose: 2.5 mg/kg/injection, schedule: Q04DX003 (ip), vehicle: other 109 % of control | dose: 5.0 mg/kg/injection, schedule: Q04DX003 (ip), vehicle: other 112 % of control | dose: 10.0 mg/kg/injection, schedule: Q04DX003 (ip), vehicle: other 109 % of control | dose: 20.0 mg/kg/injection, schedule: Q04DX003 (ip), vehicle: other 102 % of control

CCOC(=O)CN1C(=O)c2ccccc2C1=O
inactive: dose: 12.5 mg/kg/injection, schedule: Q01DX009 (ip), vehicle: other 97 % of control | dose: 25.0 mg/kg/injection, schedule: Q01DX009 (ip), vehicle: other 97 % of control | dose: 50.0 mg/kg/injection, schedule: Q01DX009 (ip), vehicle: other 98 % of control | [1] 88 % of control | dose: 100.0 mg/kg/injection, schedule: Q01DX009 (ip), vehicle: other 93 % of control | [2] 103 % of control | dose: 200.0 mg/kg/injection, schedule: Q01DX009 (ip), vehicle: other 97 % of control | [3] 92 % of control

CC1NC(=O)C(NC(=O)c2cnc3ccccc3n2)COC(=O)C(C(C)C)N(C)C(=O)C2CSSCC(C(=O)N(C)C(C(C)C)C(=O)OCC(NC(=O)c3cnc4ccccc4n3)C(=O)NC(C)C(=O)N2C)N(C)C1=O (stereo unspecified) (I: Quinoxaline2carbonyl-SA[NMeC][NMeV] / II: Quinoxaline2carbonyl-SA[NMeC][NMeV]; ester I:1-II:C, I:C-II:1; disulfide I:3-II:3; configuration not given here)
inactive: dose: 11.2 micrograms/kg/injection, schedule: Q01DX009 (ip), vehicle: Klucel (hydroxypropylcellulose) (HPC) 101 % of control | dose: 22.5 micrograms/kg/injection, schedule: Q01DX009 (ip), vehicle: Klucel (hydroxypropylcellulose) (HPC) 103 % of control | dose: 45.0 micrograms/kg/injection, schedule: Q01DX009 (ip), vehicle: Klucel (hydroxypropylcellulose) (HPC) 105 % of control | dose: 50.0 micrograms/kg/injection, schedule: Q01DX009 (ip), vehicle: other 114 % of control | dose: 90.0 micrograms/kg/injection, schedule: Q01DX009 (ip), vehicle: Klucel (hydroxypropylcellulose) (HPC) 105 % of control | dose: 180.0 micrograms/kg/injection, schedule: Q01DX009 (ip), vehicle: Klucel (hydroxypropylcellulose) (HPC) 100 % of control | dose: 200.0 micrograms/kg/injection, schedule: Q01DX009 (ip), vehicle: other 115 % of control

CC(c1ccccc1)n1ccnc1CO (stereo unspecified)
inactive: [4] 96 % of control | [5] 104 % of control | [1] 96 % of control and 102 % of control | [2] 91 % of control | [3] 98 % of control

Cc1cccc(-n2cc(C#N)c3c(C)cc(C)nc32)c1
inactive: [6] 106 % of control | [7] 101 % of control | [8] 97 % of control

CCOc1ccccc1Nc1cc(=O)[nH]c(=O)[nH]1
inactive: [9] 100 % of control | [10] 97 % of control | [11] 92 % of control

NCCCOS(=O)(=O)O
inactive: [2] 96 % of control | [6] 98 % of control | [3] 97 % of control | [7] 101 % of control | [12] 100 % of control | [8] 95 % of control

CC(C#N)C(N)=O (stereo unspecified)
inactive: dose: 12.5 mg/kg/injection, schedule: Q01DX009 (ip), vehicle: saline 98 % of control | dose: 25.0 mg/kg/injection, schedule: Q01DX009 (ip), vehicle: saline 101 % of control | dose: 50.0 mg/kg/injection, schedule: Q01DX009 (ip), vehicle: saline 102 % of control

CCCCOC(=O)CSSCC(=O)OCCCC
inactive: [1] 101 % of control | [2] 101 % of control | [3] 93 % of control

COC(=O)/C=C\n1cnc2ccccc21
inactive: dose: 75.0 mg/kg/injection, schedule: Q01DX009 (ip), vehicle: other 95 % of control | dose: 150.0 mg/kg/injection, schedule: Q01DX009 (ip), vehicle: other 101 % of control | dose: 300.0 mg/kg/injection, schedule: Q01DX009 (ip), vehicle: other 110 % of control

CC12CCCCC1=CC(=O)CC2 (stereo unspecified)
inactive: [2] 97 % of control | [13] 96 % of control | [3] 102 % of control | [14] 112 % of control | dose: 400.0 mg/kg/injection, schedule: Q04DX002 (ip), vehicle: saline with Tween-80 104 % of control

CCCCCCCCCCCCN1CCCC(O)C1 (stereo unspecified)
inactive: [5] 116 % of control | [1] 92 % of control and 105 % of control | [2] 105 % of control and 111 % of control

CSc1[nH]c2ncnc(Cl)c2c1C#N
inactive: dose: 75.0 mg/kg/injection, schedule: Q01DX001 (ip), vehicle: saline 100 % of control | dose: 150.0 mg/kg/injection, schedule: Q01DX001 (ip), vehicle: saline 94 % of control

O=C(OCC1OCOC1C1OCOC1COC(=O)c1ccccc1)c1ccccc1 (stereo unspecified)
inactive: dose: 100.0 mg/kg/injection, schedule: Q04DX003 (ip), vehicle: Klucel (hydroxypropylcellulose) (HPC) 102 % of control | dose: 200.0 mg/kg/injection, schedule: Q04DX003 (ip), vehicle: Klucel (hydroxypropylcellulose) (HPC) 97 % of control | dose: 400.0 mg/kg/injection, schedule: Q04DX003 (ip), vehicle: Klucel (hydroxypropylcellulose) (HPC) 91 % of control

O=C1O/C(=C\c2ccccc2)c2c(Br)c(Br)c(Br)c(Br)c21
inactive: dose: 37.5 mg/kg/injection, schedule: Q01DX009 (ip), vehicle: saline 96 % of control | dose: 75.0 mg/kg/injection, schedule: Q01DX009 (ip), vehicle: saline 96 % of control | dose: 150.0 mg/kg/injection, schedule: Q01DX009 (ip), vehicle: saline 98 % of control | dose: 300.0 mg/kg/injection, schedule: Q01DX009 (ip), vehicle: saline 100 % of control

O=c1cc[nH]c(=S)[nH]1.[Pt]
inactive: dose: 3.13 mg/kg/injection, schedule: Q04DX003 (ip), vehicle: distilled water + Tween-80 94 % of control | dose: 6.25 mg/kg/injection, schedule: Q04DX003 (ip), vehicle: distilled water + Tween-80 97 % of control | dose: 12.5 mg/kg/injection, schedule: Q04DX003 (ip), vehicle: distilled water + Tween-80 94 % of control | dose: 25.0 mg/kg/injection, schedule: Q04DX003 (ip), vehicle: distilled water + Tween-80 97 % of control | dose: 50.0 mg/kg/injection, schedule: Q04DX003 (ip), vehicle: distilled water + Tween-80 97 % of control | dose: 100.0 mg/kg/injection, schedule: Q04DX003 (ip), vehicle: distilled water + Tween-80 103 % of control | dose: 200.0 mg/kg/injection, schedule: Q04DX003 (ip), vehicle: distilled water + Tween-80 102 % of control

Cc1ccc(S)cc1
inactive: [9] 98 % of control | dose: 100.0 mg/kg/injection, schedule: Q04DX003 (ip), vehicle: saline sonified 100 % of control | [10] 90 % of control | dose: 200.0 mg/kg/injection, schedule: Q04DX003 (ip), vehicle: saline sonified 95 % of control | [11] 90 % of control | dose: 400.0 mg/kg/injection, schedule: Q04DX003 (ip), vehicle: saline sonified 95 % of control

NC(=O)C1C(c2ccccc2)=C(c2ccccc2)c2ccccc21 (stereo unspecified)
inactive: [9] 87 % of control | [10] 87 % of control | [11] 87 % of control

O=C(CCC(O)c1ccccc1)c1ccccc1 (stereo unspecified)
inactive: dose: 50.0 mg/kg/injection, schedule: Q04DX002 (ip), vehicle: saline with Tween-80 97 % of control | [13] 91 % of control | [14] 91 % of control

CC(C)(C)OC(=O)NCC(=O)ON1C(=O)CCC1=O
inactive: [15] 96 % of control | [16] 87 % of control

Cn1c(C(N)=O)cc(=O)n1-c1ccccc1
inactive: dose: 100.0 mg/kg/injection, schedule: Q01DX001 (ip), vehicle: saline sonified 102 % of control | [2] 107 % of control | dose: 200.0 mg/kg/injection, schedule: Q01DX001 (ip), vehicle: saline sonified 96 % of control | [3] 103 % of control | dose: 400.0 mg/kg/injection, schedule: Q01DX001 (ip), vehicle: saline sonified 98 % of control | [12] 105 % of control

NC(CC[Se]Cc1ccccc1)C(=O)O (stereo unspecified)
inactive: dose: 6.25 mg/kg/injection, schedule: Q01DX009 (ip), vehicle: saline with Tween-80 92 % of control | [4] 92 % of control | [5] 92 % of control | [15] 90 % of control | [16] 86 % of control
